From patent US20230416265A1, “COMPOUNDS FOR THE DETECTION OF HEME OXYGENASE 1 (HO-1), AND METHODS AND USES INVOLVING THE SAME” (IMPERIAL COLLEGE INNOVATIONS LIMITED, priority 2020, published 2023)
Where “and” joins values, the source holds several entries; their conditions need not be identical. Equal entries are not always repeated.

How the values were obtained:
[1] = Photophysical studies in PBS buffer pH 7.4; type: physicochemical; conditions: PBS buffer pH 7.4, 20 μM, λex = 320 nm, 298 K
[2] = Photophysical studies in chloroform; type: physicochemical; conditions: 298 K; for Emission λmax [nm] / E [%] (FRET efficiency): λex = 320 nm; for Ø514 nm [%] (quantum yield): ± 20%, standard H2TPP in toluene (Ø514 nm = 0.11)
Experimental: UV-Visible absorption spectra were measured using an Agilent Technologies Cary 60 Spectrophotometer operating with VVinUV software. The sample was held in a quartz cuvette with a path length of 1 cm. Absorption spectra were recorded against a baseline of pure solvent in an optically matched cuvette with a scan rate of 600 nm/min and a data interval of 1.0 nm. Emission and excitation spectra were acquired on an Agilent Technologies Carry Eclipse Fluorescence Spectrophotometer, in quartz cuvettes with a path length of 1 cm. Emission and excitation spectra were collected with a scan rate of 120.0 nm/min, a delay interval of 1.0 nm and band-passes of 5 nm. […]
(§1) In the examples highlighted above, the sample concentration was […] in PBS buffer and 10 pM in chloroform. All measurements were performed at 298 K.

[3] = Photophysical studies in PBS buffer pH 7.4; type: physicochemical; conditions: for E [%] (FRET efficiency): PBS buffer pH 7.4, 20 μM, 298 K; for Ø514 nm [%] (quantum yield): PBS buffer pH 7.4, 298 K, ± 20%, standard H2TPP in toluene (Ø514 nm = 0.11)
Experimental: UV-Visible absorption spectra were measured using an Agilent Technologies Cary 60 Spectrophotometer operating with VVinUV software. The sample was held in a quartz cuvette with a path length of 1 cm. Absorption spectra were recorded against a baseline of pure solvent in an optically matched cuvette with a scan rate of 600 nm/min and a data interval of 1.0 nm. Emission and excitation spectra were acquired on an Agilent Technologies Carry Eclipse Fluorescence Spectrophotometer, in quartz cuvettes with a path length of 1 cm. Emission and excitation spectra were collected with a scan rate of 120.0 nm/min, a delay interval of 1.0 nm and band-passes of 5 nm.
Measurements were recorded in aqueous solutions of PBS buffer at pH 7.4 in order to mimic physiological conditions.
as §1

HO-1 = target: T1, HO-1 (Homo sapiens, UniProt P09601); experiment: Control experiment: quenching of coumarin 1i fluorescence on addition of HO-1 in E. coli lysates; type: biochemical; conditions: λex = 320 nm
T1 construct: made in house; host or cells: E. coli (lysate)
T1 sequence (P09601 1-288): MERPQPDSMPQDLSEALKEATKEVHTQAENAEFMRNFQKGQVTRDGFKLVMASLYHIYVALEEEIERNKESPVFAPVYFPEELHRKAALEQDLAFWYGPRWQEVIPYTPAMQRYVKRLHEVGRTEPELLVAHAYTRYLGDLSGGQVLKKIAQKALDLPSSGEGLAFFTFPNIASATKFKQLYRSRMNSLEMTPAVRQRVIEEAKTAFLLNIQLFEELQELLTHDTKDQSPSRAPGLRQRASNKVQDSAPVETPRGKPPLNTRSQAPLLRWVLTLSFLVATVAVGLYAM

Row | Compound | Emission λmax [nm] [1] | Emission λmax [nm] [2] | Ø514 nm [%] (quantum yield) [2] | E [%] (FRET efficiency) [2] | E [%] (FRET efficiency) ([3]; λex = 320 nm) | Ø514 nm [%] (quantum yield) [3] | decrease in the emission intensity at 384 nm following addition of HO-1 (HO-1) | porphyrin emission following Fe2+ complexation ([3]; PBS buffer and chloroform, λex = 320 nm)
1 | Cc1cc(=O)oc2cc(OCCBr)ccc12 [Compound 1f] | 384 nm and 383 ^[b] nm | 382 nm |  |  |  |  |  | 
2 | COC(=O)CCC1=C(C)c2cc3[nH]c(c(C)c3C)c(-c3ccc(OCCOc4ccc5c(C)cc(=O)oc5c4)cc3)c3nc(cc4[nH]c(cc1n2)c(CCC(=O)OC)c4C)C(C)=C3C [Compound 1g] | 387 nm | 385 nm and 629 nm and 695 nm | 5.2% | 99.7% | 95.1% | 0.5% |  | 
3 | Iron(11) dimethyl 3,3′-(3,7,8,12,13,17-hexamethyl-10-(4-(2-((4-methyl-2-oxo-2H-chromen-7-yl)oxy)ethoxy) phenyl)porp-hyrin-2,18-diyl)dipropionate [Compound 1h] | 387 ^[b], [c] nm | 385^[a], [b] nm |  | 98.7% | 99.2% |  |  | completely quenched

The next lines start with the values.

Row | Emission λmax [nm] [1] | Emission λmax [nm] [2] | Ø514 nm [%] (quantum yield) [2] | E [%] (FRET efficiency) [2] | E [%] (FRET efficiency) ([3]; λex = 320 nm) | Ø514 nm [%] (quantum yield) [3] | decrease in the emission intensity at 384 nm following addition of HO-1 (HO-1) | porphyrin emission following Fe2+ complexation ([3]; PBS buffer and chloroform, λex = 320 nm) | Compound
4 | 384 nm | 381 nm |  |  |  |  | 2.3 fold |  | Cc1cc(=O)oc2cc(OCCOc3ccc(C(=O)O)cc3)ccc12 [Compound 1i, 4-(2-((4-Methyl-2-oxo-2H-chromen-7-yl)oxy)ethoxy)benzoic acid]
5 | 383 nm | 379 nm and 654 nm and 719 nm | 17.4% | 96.6% | 96.8% | 2.0% |  |  | Cc1cc(=O)oc2cc(OCCOc3ccc(-c4c5nc(c(-c6ccccc6)c6ccc([nH]6)c(-c6ccccc6)c6nc(c(-c7ccccc7)c7ccc4[nH]7)C=C6)C=C5)cc3)ccc12 [Compound C3g, reference compound]
